{
  "source": "paper PMC8301768",
  "about": "“Cloning and Characterization of Aedes aegypti Trypsin Modulating Oostatic Factor (TMOF) Gut Receptor” (Biomolecules, 2021)",
  "key": {"AeaABC-TMOF receptor [1]": {"system": "AeaABC-TMOF receptor", "assay": "Transport of AeaTMOF-FITC into E. coli cells expressing AeaABC-TMOF receptor in the presence of inhibitors", "type": "cell-based, Aedes aegypti", "settings": "NaAzide 100 μM, NaArsenate 20 mM, AeaTMOF-FITC 0.4 μM, 2 h, 37 °C; for effect on transport of AeaTMOF-FITC into E. coli cells (in words): Valinomycin 7 μM, DNP 27 μM; for inhibition of transport of AeaTMOF-FITC into E. coli cells: 5 × 10^5 cells, M9 medium, versus control cells, mean of 3", "method": "To find out whether the transport into E. coli cells expressing the TMOF receptor is proton driven or depends on ATP hydrolysis, E. coli cells (5 × 10^5 cell) expressing the TMOF receptor were incubated in M9 medium (100 μL) with valinomysin (7 μM), DNP (27 μM), NaAzide (100 μM) and NaArsenate (20 mM) in the presence of AeaTMOF-FITC (0.4 μM) for 2 h at 37 °C. Control was run without the inhibitors. After incubation, the cells were washed 3× by centrifugation and the fluorescence was read after subtraction the initial background fluorescence of the medium and inhibitors without the AeaTMOF-FITC. The incubations were repeated 3 independent times and the results are expressed as means of 3 determinations ±SEM."}, "AeaABC-TMOF receptor [2]": {"system": "AeaABC-TMOF receptor", "assay": "Binding of TMOF-FITC to AeaABC-TMOF receptor expressed in E. coli SbmA− cells", "parameters": "species or system Aedes aegypti", "settings": "for Kd: TMOF-FITC 0–0.4 μM, 8 × 10^8 E. coli SbmA− cells expressing receptor, M9 medium pH 7.2, 37 °C, fluorescence, corrected for nonspecific binding (13%), nonlinear regression, n = 5, ± SEM; for Bmax: as for KD, ± SEM; for affinity constant Kassoc: calculated from the binding kinetics", "method": "Mid-log phase bacteria harboring TMOF-receptor were harvested, diluted and 0.5 μL (8 × 10^8 cells) were incubated in M9 medium (100 μL) pH 7.2 at 37 °C for 2 h in a shaker incubator in Eppendorf tubes with different concentrations of TMOF-FITC (0–0.4 μM) (specific activity = 25,396 fluorescence units/pmol) in the presence of TMOF (1 μmol) to reduce nonspecific binding of TMOF-FITC to the bacterial surface. After incubation, the cells were centrifuged at 14,000 rpm for 5 min at 4 °C, resuspended in PBS pH 7.2 (100 μL), vortexed, centrifuged, and the washing was repeated three times. After the last wash, the cells OD600nm and fluorescence were read in GloMax multidetector system using a blue filter (excitation at 490 nm and emission at 510–570 nm). The amount of TMOF-FITC that bound the TMOF-receptor was determined from a linear calibration curve after plotting different concentrations of TMOF-FITC against fluorescence units. […] After HPLC purification, the TFA ions were exchanged with phosphate ions. […] The results are expressed as pmol/OD600 so the binding to the receptor is per equal number of E. coli cells. The kinetics of TMOF-FITC binding to its receptor was followed at different concentrations of TMOF-FITC using 5 repetitions per concentration, the data was then fitted by nonlinear regression using GraphPad Prism and the KD, Bmax and the affinity constant Kassoc determined. The binding experiments were repeated 3 independent times.\nStatistical analyses were determined using GraphPad Prism using two tailed Student’s t test and nonlinear regression. Results were considered significant when p < 0.05. […] Each experimental point is a mean of 3–5 determinations ± SEM."}, "TMOF gut receptor": {"system": "TMOF gut receptor", "settings": "cited from earlier work", "excerpt": "To characterize the TMOF gut receptor, complementary decapeptides were used on Ae. aegypti gut membranes showing that the binding to the gut membrane is pH and temperature dependent. […] The specific TMOF receptor binding sites on female mosquito gut increased after the blood meal and they were visualized by immunochemistry staining. […] Our earlier studies also characterized a low affinity receptor [25] whereas in this study the affinity chromatography and SDS PAGE procedure that we used aimed to purify a high affinity TMOF receptor. It is possible that a second low affi ..."}, "AeaABC-TMOF receptor [3]": {"system": "AeaABC-TMOF receptor", "assay": "Fluorescence microscopy of TMOF-FITC import into E. coli cells expressing AeaABC-TMOF receptor", "type": "cell-based, Aedes aegypti", "settings": "for fluorescence of cells / import (in words): overnight incubation, 10^8 cells expressing receptor, 37 °C, washed 3×", "method": "Binding of TMOF-FITC to the AeaABC-TMOF receptor and its transport into the recombinant E. coli cells were observed using Leica DM6B microscope with Leica DFC 7000 T camera and 63× magnification using oil immersion lens. […] After incubation, the cells were washed 3× in PBS pH 7.2 (as in Section 2.6) and aliquots (10 μL) were spread on a glass slide then covered with a cover slip and a drop of oil was applied to the top of the cover slip, and the cells observed by fluorescence microscopy. Cells without a TMOF-receptor containing an empty plasmid were used as control."}, "E. coli SbmA+ cells": {"system": "E. coli SbmA+ cells", "assay": "Binding of TMOF-FITC to E. coli SbmA+ cells with empty pTAC-MAT2 plasmid", "settings": "8 × 10^8 cells, 2 h, 37 °C, M9 medium, mean of three", "method": "(§1) Mid-log phase bacteria harboring TMOF-receptor were harvested, diluted and 0.5 μL (8 × 10^8 cells) were incubated in M9 medium (100 μL) pH 7.2 at 37 °C for 2 h in a shaker incubator in Eppendorf tubes with different concentrations of TMOF-FITC (0–0.4 μM) (specific activity = 25,396 fluorescence units/pmol) in the presence of TMOF (1 μmol) to reduce nonspecific binding of TMOF-FITC to the bacterial surface. After incubation, the cells were centrifuged at 14,000 rpm for 5 min at 4 °C, resuspended in PBS pH 7.2 (100 μL), vortexed, centrifuged, and the washing was repeated three times. After the last wash, the cells OD600nm and fluorescence were read in GloMax multidetector system using a blue filter (excitation at 490 nm and emission at 510–570 nm). The amount of TMOF-FITC that bound the TMOF-receptor was determined from a linear calibration curve after plotting different concentrations of TMOF-FITC against fluorescence units. […] The results are expressed as pmol/OD600 so the binding to the receptor is per equal number of E. coli cells. The kinetics of TMOF-FITC binding to its receptor was followed at different concentrations of TMOF-FITC using 5 repetitions per concentration, the data was then fitted by nonlinear regression using GraphPad Prism and the KD, Bmax and the affinity constant Kassoc determined. […]"}, "E. coli SbmA− cells [4]": {"system": "E. coli SbmA− cells", "assay": "Nonspecific binding of TMOF-FITC to E. coli SbmA− cells with empty pTAC-MAT-2 plasmid", "method": "as §1"}, "E. coli SbmA− cells [5]": {"system": "E. coli SbmA− cells", "assay": "Fluorescence microscopy of E. coli cells with empty pTAC-MAT-2 plasmid incubated with TMOF-FITC", "type": "cell-based", "settings": "overnight incubation, 10^8 cells with empty plasmid, 37 °C, washed 3×", "method": "Binding of TMOF-FITC to the AeaABC-TMOF receptor and its transport into the recombinant E. coli cells were observed using Leica DM6B microscope with Leica DFC 7000 T camera and 63× magnification using oil immersion lens. Mid-log E. coli cells (10^8 cells) expressing AeaABC-TMOF-receptor were incubated with TMOF-FITC (see Section 2.6) in M9 medium (100 μL) overnight at 37 °C. After incubation, the cells were washed 3× in PBS pH 7.2 (as in Section 2.6) and aliquots (10 μL) were spread on a glass slide then covered with a cover slip and a drop of oil was applied to the top of the cover slip, and the cells observed by fluorescence microscopy. Cells without a TMOF-receptor containing an empty plasmid were used as control."}},
  "data": [
    {"molecule": "O=[N+]([O-])c1ccc(O)c([N+](=O)[O-])c1", "note": "[DNP, 2,4-dinirophenol]", "values": [
      {"measurement": "effect on transport of AeaTMOF-FITC into E. coli cells (in words)", "setting": "AeaABC-TMOF receptor [1]", "result": "did not stop the transport"}
    ]},
    {"molecule": "O=[As]([O-])([O-])O.[Na+].[Na+]", "note": "[NaArsenate, sodium arsenate]", "values": [
      {"measurement": "inhibition of transport of AeaTMOF-FITC into E. coli cells", "setting": "AeaABC-TMOF receptor [1]", "result": 58, "unit": "%"},
      {"measurement": "effect on transport of AeaTMOF-FITC into E. coli cells (in words)", "setting": "AeaABC-TMOF receptor [1]", "result": "inhibited"}
    ]},
    {"molecule": "[N-]=[N+]=[N-].[Na+]", "note": "[NaAzide, sodium azide]", "values": [
      {"measurement": "inhibition of transport of AeaTMOF-FITC into E. coli cells", "setting": "AeaABC-TMOF receptor [1]", "result": 43, "unit": "%"},
      {"measurement": "effect on transport of AeaTMOF-FITC into E. coli cells (in words)", "setting": "AeaABC-TMOF receptor [1]", "result": "inhibited"}
    ]},
    {"molecule": "YDPAPPPPPP [TMOF]", "values": [
      {"measurement": "Kd", "setting": "AeaABC-TMOF receptor [2]; 2 h", "result": "114 ± 18", "unit": "nM"},
      {"measurement": "Bmax", "setting": "AeaABC-TMOF receptor [2]", "result": "28.7 ± 1.8", "unit": "pmol"},
      {"measurement": "affinity constant Kassoc", "setting": "AeaABC-TMOF receptor [2]", "result": "8.8e+06", "unit": "M⁻¹"},
      {"measurement": "Bmax", "setting": "TMOF gut receptor; gut membrane preparations", "result": 0.1, "unit": "pmol/gut"},
      {"measurement": "Kassoc", "setting": "TMOF gut receptor; gut membrane preparations", "result": "2.2e+06", "unit": "M⁻¹"},
      {"measurement": "Kd", "setting": "TMOF gut receptor; low affinity binding site, gut membranes, complementary decapeptides, read-out: Kd2", "result": 4430, "unit": "nM"}
    ]},
    {"molecule": "H-YDPAPPPPPPK(FITC)K-OH [TMOF-FITC]", "values": [
      {"measurement": "fluorescence of cells / import (in words)", "setting": "AeaABC-TMOF receptor [3]", "result": "imports it into the bacterial cells"},
      {"measurement": "fluorescence of cells / import (in words)", "setting": "AeaABC-TMOF receptor [3]; listed as AeaTMOF-FITC", "result": "highly fluoresce"},
      {"measurement": "fluorescence of cells (in words)", "setting": "AeaABC-TMOF receptor [3]; short time incubation (2 h), cells expressing receptor", "result": "did not fluoresce"},
      {"measurement": "AeaTMOF-FITC bound", "setting": "E. coli SbmA+ cells", "result": 8.4, "unit": "pmol"},
      {"measurement": "nonspecific binding", "setting": "E. coli SbmA− cells [4]; E. coli SbmA− cells with empty pTAC-MAT-2 plasmid, not expressing the receptor (bacterial cell wall)", "result": 13, "unit": "%"},
      {"measurement": "AeaTMOF-FITC bound", "setting": "E. coli SbmA− cells [4]; E. coli SbmA− cells, 8 × 10^8 cells, 2 h, 37 °C, M9 medium, mean of three", "result": 4, "unit": "pmol"},
      {"measurement": "fold more TMOF-FITC bound by receptor-expressing cells than by E. coli SbmA+", "setting": "AeaABC-TMOF receptor [2]; 2 h, 37 °C, M9 medium, versus E. coli SbmA+ with empty plasmid, p = 0.0034", "result": 3.7, "unit": "fold"},
      {"measurement": "fold more TMOF-FITC bound by receptor-expressing cells than by E. coli SbmA−", "setting": "AeaABC-TMOF receptor [2]; 2 h, 37 °C, M9 medium, versus E. coli SbmA− with empty plasmid, p = 0.0018", "result": 7.8, "unit": "fold"},
      {"measurement": "Kd", "setting": "AeaABC-TMOF receptor [2]; 2 h", "result": "114 ± 18", "unit": "nM"},
      {"measurement": "Bmax", "setting": "AeaABC-TMOF receptor [2]; per equal number of E. coli cells, n = 5", "result": "28.7 ± 1.8", "unit": "pmol/OD600"},
      {"measurement": "affinity constant Kassoc", "setting": "AeaABC-TMOF receptor [2]", "result": "8.8e+06", "unit": "M⁻¹"},
      {"measurement": "fluorescence of cells (in words)", "setting": "E. coli SbmA− cells [5]", "result": "did not fluoresce"},
      {"measurement": "fluorescence of cells (in words)", "setting": "E. coli SbmA− cells [5]; listed as AeaTMOF-FITC", "result": "barely fluoresce"}
    ]},
    {"molecule": "CC(C)[C@@H]1NC(=O)[C@H](C)OC(=O)[C@@H](C(C)C)NC(=O)[C@@H](C(C)C)OC(=O)[C@H](C(C)C)NC(=O)[C@H](C)OC(=O)[C@@H](C(C)C)NC(=O)[C@@H](C(C)C)OC(=O)[C@H](C(C)C)NC(=O)[C@H](C)OC(=O)[C@@H](C(C)C)NC(=O)[C@@H](C(C)C)OC1=O", "note": "[Valinomycin]", "values": [
      {"measurement": "effect on transport of AeaTMOF-FITC into E. coli cells (in words)", "setting": "AeaABC-TMOF receptor [1]", "result": "did not stop the transport"}
    ]}
  ]
}
